Experimental data as given in patent US20110224226A1, “COMPOSITIONS AND METHODS FOR INCREASING BLOOD PLATELET LEVELS IN HUMANS” (AKARX, Inc., priority 2006, published 2011).
Like-named read-outs stand apart in the source and are kept apart here.

Assays:
[1] = Example 1 single dose study: pharmacokinetics; assay type: in vivo, human; details: for Cmax / half-life / AUC(0-inf) / AUC(0-t) / AUC / Tmax: both sexes, human; for Tmax: read-out: mean time to maximum plasma concentration (Tmax)
Protocol: (§1) A single-center, randomized, double-blind, dose-rising study to determine the safety, pharmacokinetics, and pharmacodynamics of single doses of 1-(3-chloro-5-{[4-(4-chlorothiophen-2-yl)-5-(4-cyclohexylpiperazin-1-yl)thiazol-2-yl]carbamoyl} pyridin-2-yl)piperadine-4-carboxylic acid (Formula I) in normal healthy volunteers was performed. The starting dose of the drug of Formula I was 1 mg (expressed as free base). Successive dose cohorts received 3, 10, 20, 50, 75 and 100 mg. The drug substance in the form of the monomaleate salt was suspended in Ora-Plus® (purified water, microcrystalline cellulose, sodium carboxymethylcellulose, xanthan gum, citric acid, sodium phosphate, simethicone, potassium sorbate and methylparaben), a commercially available oral suspending vehicle manufactured by Paddock Laboratories, Inc. Minneapolis, Minn. The Ora-Plus® was diluted with purified water, USP in a 1:1 suspension before being used to suspend the drug substance powder in preparation for oral administration. Prior to administration, 30 mL of the Ora-Plus®/water vehicle was added to each bottle, shaken and then consumed by the subject for each of the 3, 10, 50 and 75 mg dose cohorts. This was followed by an additional 30 mL of vehicle that was added to the bottle as a wash solution, shaken and then consumed by the subject. For the 20 mg and 100 mg dose cohorts, 60 mL of the Ora-Plus®/water vehicle was added to two (2) separate bottles containing the appropriate dose of drug (30 mL each bottle), shaken then consumed by the subjects. This was followed by an additional 60 mL of vehicle that was added as 30 ml to each bottle as a wash solution, shaken and then consumed by the subject.
A minimum of 9 subjects (male and female healthy volunteers) were enrolled in each cohort. The active group within each cohort included male and female volunteers. Three subjects per cohort received placebo. Each successive dose cohort was treated no sooner than 10 days after the previous group had received the study drug. […] Each subject received only 1 dose of Formula I. Intra-subject dose escalation and treating previously treated subjects in any cohort expansions were not allowed. All subjects were followed until their platelet count returned to normal levels (defined as ±20% of baseline).
Dose escalation was stopped if the PD limiting dose was reached or at the dose at which a dose limiting toxicity (DLT) was observed. The pharmacodynamic limit (PD limit) is defined as the dose at which there was a 50% increase in platelet count relative to the […] in the 6 actively treated subjects. The pharmacodynamic limiting dose (if reached), was repeated by running an additional cohort of 9 subjects (3 placebo and 6 active) at the dose level of the observed PD limit.
Pharmacokinetic sampling was taken. Pharmacodynamic evaluations of platelet counts and other hematological parameters were performed from study drug administration (Day 1) until 7 days after dosing. Outpatient follow-up for safety evaluation occurred until 14 days post-treatment for all subjects and longer for subjects requiring additional follow-up. For the repeat PD dose cohort or 100 mg dose cohort, the evaluations of platelet counts and other hematological parameters were performed each day from Day 1 through 14 and then every other day up to Day 28. If the PD dose limit was not reached at a dose of 75 mg, platelet count evaluations as outlined for the PD limiting dose were performed on the 100 mg dose cohort.

[2] = Example 1 single dose study: safety; assay type: in vivo, human; details: single dose up to 100 mg, healthy volunteers
Protocol: as §1, with “For the 20 mg and 100 mg dose cohorts, 60 mL of the Ora-Plus®/water vehicle was added to two (2) separate bottles containing the appropriate dose of drug (30 mL each bottle), shaken then consumed by the subjects. This was followed by an additional 60 mL of vehicle that was added as 30 ml to each bottle as a wash solution, shaken and then consumed by the subject.” left out

O=C(Nc1nc(-c2cc(Cl)cs2)c(N2CCN(C3CCCCC3)CC2)s1)c1cnc(N2CCC(C(=O)O)CC2)c(Cl)c1 [Formula I, 1-(3-chloro-5-{[4-(4-chlorothiophen-2-yl)-5-(4-cyclohexylpiperazin-1-yl)thiazol-2-yl]carbamoyl}pyridin-2-yl)piperadine-4-carboxylic acid]
Cmax ([1]; plasma, oral, 1 mg, single 1 mg daily dose, read-out: mean maximum plasma concentration (Cmax)): ~5.7 ng/mL | Cmax ([1]; plasma, oral, 3 mg, single 3 mg daily dose, read-out: mean maximum plasma concentration (Cmax)): 14 to 17 ng/mL | Cmax ([1]; plasma, oral, 10 mg, single 10 mg daily dose, (±20%), read-out: mean maximum plasma concentration (Cmax)): 53 to 69 ng/mL | Cmax ([1]; plasma, oral, 20 mg, single 20 mg daily dose, read-out: mean maximum plasma concentration (Cmax)): 121 to 168 ng/mL | Cmax ([1]; plasma, oral, 50 mg, single 50 mg daily dose, read-out: mean maximum plasma concentration (Cmax)): ~311 ng/mL | Cmax ([1]; plasma, oral, 75 mg, single 75 mg daily dose, read-out: mean maximum plasma concentration (Cmax)): ~473 ng/mL | Cmax ([1]; plasma, oral, 100 mg, 100 mg daily dose, read-out: mean maximum plasma concentration (Cmax)): ~388 ng/mL | Cmax ([1]; plasma, po, 1 mg, single oral dose 1 mg, healthy volunteers, final mean, read-out: Cmax): 5.67 ng/mL | half-life ([1]; plasma, po, 1 mg, single oral dose 1 mg, healthy volunteers, final mean, read-out: T½ (converted)): 21.5 h | Cmax ([1]; plasma, po, 1 mg, single oral dose 1 mg, healthy volunteers, preliminary mean, read-out: Cmax): 5.15 ng/mL | half-life ([1]; plasma, po, 1 mg, single oral dose 1 mg, healthy volunteers, preliminary mean, read-out: T½ (converted)): 18.9 h | Cmax ([1]; plasma, po, 3 mg, single oral dose 3 mg, healthy volunteers, preliminary mean, read-out: Cmax): 16 ng/mL | half-life ([1]; plasma, po, 3 mg, single oral dose 3 mg, healthy volunteers, preliminary mean, read-out: T½ (converted)): 17.5 h | Cmax ([1]; plasma, po, 10 mg, single oral dose 10 mg, healthy volunteers, preliminary mean, read-out: Cmax): 63.6 ng/mL | half-life ([1]; plasma, po, 10 mg, single oral dose 10 mg, healthy volunteers, preliminary mean, read-out: T½ (converted)): 18 h | Cmax ([1]; plasma, po, 20 mg, single oral dose 20 mg, healthy volunteers, preliminary mean, read-out: Cmax): 146 ng/mL | half-life ([1]; plasma, po, 20 mg, single oral dose 20 mg, healthy volunteers, preliminary mean, read-out: T½ (converted)): 12.9 h | Cmax ([1]; plasma, po, 50 mg, single oral dose 50 mg, healthy volunteers, final mean, read-out: Cmax): 312 ng/mL | half-life ([1]; plasma, po, 50 mg, single oral dose 50 mg, healthy volunteers, final mean, read-out: T½ (converted)): 19 h | Cmax ([1]; plasma, po, 50 mg, single oral dose 50 mg, healthy volunteers, preliminary mean, read-out: Cmax): 294 ng/mL | half-life ([1]; plasma, po, 50 mg, single oral dose 50 mg, healthy volunteers, preliminary mean, read-out: T½ (converted)): 14.8 h | Cmax ([1]; plasma, po, 75 mg, single oral dose 75 mg, healthy volunteers, final mean, read-out: Cmax): 474 ng/mL | half-life ([1]; plasma, po, 75 mg, single oral dose 75 mg, healthy volunteers, final mean, read-out: T½ (converted)): 18.8 h | Cmax ([1]; plasma, po, 75 mg, single oral dose 75 mg, healthy volunteers, preliminary mean, read-out: Cmax): 446 ng/mL | half-life ([1]; plasma, po, 75 mg, single oral dose 75 mg, healthy volunteers, preliminary mean, read-out: T½ (converted)): 15.3 h | Cmax ([1]; plasma, po, 100 mg, single oral dose 100 mg, healthy volunteers, final mean, read-out: Cmax): 388 ng/mL | half-life ([1]; plasma, po, 100 mg, single oral dose 100 mg, healthy volunteers, final mean, read-out: T½ (converted)): 18 h | Cmax ([1]; plasma, po, 100 mg, single oral dose 100 mg, healthy volunteers, preliminary mean, read-out: Cmax): 365 ng/mL | half-life ([1]; plasma, po, 100 mg, single oral dose 100 mg, healthy volunteers, preliminary mean, read-out: T½ (converted)): 15.8 h | AUC(0-inf) ([1]; plasma, single oral dose 1 mg, healthy volunteers, final mean): 183 ng·h/mL | AUC(0-t) ([1]; plasma, single oral dose 1 mg, healthy volunteers, final mean, read-out: AUC0-last): 130 ng·h/mL | AUC ([1]; plasma, single oral dose 1 mg, healthy volunteers, preliminary mean): 161 ng·h/mL | AUC ([1]; plasma, single oral dose 3 mg, healthy volunteers, preliminary mean): 477 ng·h/mL | AUC ([1]; plasma, single oral dose 10 mg, healthy volunteers, preliminary mean): 2110 ng·h/mL | AUC ([1]; plasma, single oral dose 20 mg, healthy volunteers, preliminary mean): 4020 ng·h/mL | AUC(0-inf) ([1]; plasma, single oral dose 50 mg, healthy volunteers, final mean): 8480 ng·h/mL | AUC(0-t) ([1]; plasma, single oral dose 50 mg, healthy volunteers, final mean, read-out: AUC0-last): 6880 ng·h/mL | AUC ([1]; plasma, single oral dose 50 mg, healthy volunteers, preliminary mean): 9180 ng·h/mL | AUC(0-inf) ([1]; plasma, single oral dose 75 mg, healthy volunteers, final mean): 13500 ng·h/mL | AUC(0-t) ([1]; plasma, single oral dose 75 mg, healthy volunteers, final mean, read-out: AUC0-last): 10800 ng·h/mL | AUC ([1]; plasma, single oral dose 75 mg, healthy volunteers, preliminary mean): 12600 ng·h/mL | AUC(0-inf) ([1]; plasma, single oral dose 100 mg, healthy volunteers, final mean): 11100 ng·h/mL | AUC(0-t) ([1]; plasma, single oral dose 100 mg, healthy volunteers, final mean, read-out: AUC0-last): 10900 ng·h/mL | AUC ([1]; plasma, single oral dose 100 mg, healthy volunteers, preliminary mean): 10500 ng·h/mL | half-life ([1]; serum, oral, single dose 1 mg to 100 mg, independent of the dose, read-out: serum elimination half-life (mean t1/2)): 18 to 24 h | Cmax ([1]; serum, po, 3 mg, single oral dose 3 mg, healthy volunteers, final mean, read-out: Cmax): 17.1 ng/mL | half-life ([1]; serum, po, 3 mg, single oral dose 3 mg, healthy volunteers, final mean, read-out: T½ (converted)): 23.6 h | Cmax ([1]; serum, po, 10 mg, single oral dose 10 mg, healthy volunteers, final mean, read-out: Cmax): 69.1 ng/mL | half-life ([1]; serum, po, 10 mg, single oral dose 10 mg, healthy volunteers, final mean, read-out: T½ (converted)): 21.8 h | Cmax ([1]; serum, po, 20 mg, single oral dose 20 mg, healthy volunteers, final mean, read-out: Cmax): 169 ng/mL | half-life ([1]; serum, po, 20 mg, single oral dose 20 mg, healthy volunteers, final mean, read-out: T½ (converted)): 18.9 h | AUC(0-inf) ([1]; serum, single oral dose 3 mg, healthy volunteers, final mean): 534 ng·h/mL | AUC(0-t) ([1]; serum, single oral dose 3 mg, healthy volunteers, final mean, read-out: AUC0-last): 401 ng·h/mL | AUC(0-inf) ([1]; serum, single oral dose 10 mg, healthy volunteers, final mean): 2380 ng·h/mL | AUC(0-t) ([1]; serum, single oral dose 10 mg, healthy volunteers, final mean, read-out: AUC0-last): 1650 ng·h/mL | AUC(0-inf) ([1]; serum, single oral dose 20 mg, healthy volunteers, final mean): 4440 ng·h/mL | AUC(0-t) ([1]; serum, single oral dose 20 mg, healthy volunteers, final mean, read-out: AUC0-last): 3600 ng·h/mL | AUC(0-t) ([1]; plasma, oral, 100 mg daily dose, read-out: mean AUC0-last): ~10900 ng·h/mL | Tmax ([1]; plasma, oral, 100 mg daily dose): ~6.2 h | AUC(0-t) ([1]; plasma, oral, single 1 mg daily dose, read-out: mean AUC0-last): ~130 ng·h/mL | Tmax ([1]; plasma, oral, single 1 mg daily dose): ~6.1 h | AUC(0-t) ([1]; plasma, oral, single 3 mg daily dose, read-out: mean AUC0-last): 235 to 400 ng·h/mL | Tmax ([1]; plasma, oral, single 3 mg daily dose): ~5.5 h | AUC(0-t) ([1]; plasma, oral, single 10 mg daily dose, read-out: mean AUC0-last): 840 to 1640 ng·h/mL | Tmax ([1]; plasma, oral, single 10 mg daily dose): 4.8 to 6 h | AUC(0-t) ([1]; plasma, oral, single 20 mg daily dose, read-out: mean AUC0-last): 1960 to 3600 ng·h/mL | Tmax ([1]; plasma, oral, single 20 mg daily dose): ~5.2 h | AUC(0-t) ([1]; plasma, oral, single 50 mg daily dose, read-out: mean AUC0-last): ~6880 ng·h/mL | Tmax ([1]; plasma, oral, single 50 mg daily dose): ~4.8 h | AUC(0-t) ([1]; plasma, oral, single 75 mg daily dose, read-out: mean AUC0-last): ~10800 ng·h/mL | Tmax ([1]; plasma, oral, single 75 mg daily dose): ~6 h | dose proportionality of Cmax and AUC ([1]; single doses 1 to 100 mg, slightly lower than expected exposure at 100 mg): increased proportionally up to the 75 mg dose | lag time ([1]; single oral dose, healthy volunteers): 2 to 4 h | tolerability (drug-related clinical or laboratory adverse experiences) [2]: well tolerated
